# From patent US20250179103A1, “6-OXODECAHYDROPYRROLO[1,2-A][1,5]DIAZOCINE AND 6-OXODECAHYDRO-4H-PYRROLO[2,1-D][1,5]THIAZOCINE DERIVATIVES AS STAT3 AND STAT6 MODULATORS FOR THE TREATMENT OF CANCER AND INFLAMMATORY CONDITIONS” (Recludix Pharma, Inc., priority 2022, published 2025)
# Key:
# [1] = molecular target: T1, Recombinant STAT6 protein (STAT6(W123-T658)) (Homo sapiens, UniProt P42226); experiment: STAT6 Fluorescence Polarization (FP) Assay; assay type: binding; conditions: STAT6(W123-T658) 250 nM, probe 5-FAM-ApYKPFQDLI-NH2 2 nM, 45-minute incubation
# T1 construct: Recombinant STAT6 protein (STAT6(W123-T658))
# T1 sequence (P42226 123-658): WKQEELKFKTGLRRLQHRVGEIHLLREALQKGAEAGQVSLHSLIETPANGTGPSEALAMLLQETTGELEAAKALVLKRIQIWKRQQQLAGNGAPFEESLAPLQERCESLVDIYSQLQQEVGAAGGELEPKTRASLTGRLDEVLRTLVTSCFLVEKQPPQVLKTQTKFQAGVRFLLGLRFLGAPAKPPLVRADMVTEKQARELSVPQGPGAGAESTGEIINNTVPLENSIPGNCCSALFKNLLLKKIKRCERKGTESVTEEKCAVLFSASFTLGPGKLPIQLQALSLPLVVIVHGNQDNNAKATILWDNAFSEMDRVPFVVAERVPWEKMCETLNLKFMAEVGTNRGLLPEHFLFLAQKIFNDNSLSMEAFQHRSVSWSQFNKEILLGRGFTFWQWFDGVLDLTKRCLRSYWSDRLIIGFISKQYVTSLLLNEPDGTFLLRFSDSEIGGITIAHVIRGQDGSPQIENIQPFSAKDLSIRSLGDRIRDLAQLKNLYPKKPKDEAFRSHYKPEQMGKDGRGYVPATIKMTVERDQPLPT
# Procedure, shortened: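 Displacement of a fluorescent phosphotyrosine peptide (5-FAM-ApYKPFQDLI-NH2, 2 nM) from STAT6(W123-T658) (250 nM), 1% DMSO, pH 7.4 HEPES buffer. After 45 min at room temperature, polarization (mP) was plotted versus log compound concentration and fitted by nonlinear regression to give IC50.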
# [2] = molecular target: T2, Recombinant STAT3 protein (STAT3(G127-I722)) (Homo sapiens, UniProt P40763); experiment: STAT3 Fluorescence Polarization (FP) Assay; assay type: binding; conditions: STAT3(G127-I722) 25 nM, probe 5-FAM-GpYLPQTV-NH2 2 nM, 45-minute incubation
# T2 construct: Recombinant STAT3 protein (STAT3(G127-I722))
# Procedure, shortened: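 STAT3(G127-I722), 25 nM, was mixed with 2 nM 5-FAM-GpYLPQTV-NH2 probe in HEPES pH 7.4 buffer with 1% DMSO and serially diluted compound. FP (mP) was read after 45 min at room temperature. IC50 came from nonlinear regression.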
# T2 sequence (P40763 127-722): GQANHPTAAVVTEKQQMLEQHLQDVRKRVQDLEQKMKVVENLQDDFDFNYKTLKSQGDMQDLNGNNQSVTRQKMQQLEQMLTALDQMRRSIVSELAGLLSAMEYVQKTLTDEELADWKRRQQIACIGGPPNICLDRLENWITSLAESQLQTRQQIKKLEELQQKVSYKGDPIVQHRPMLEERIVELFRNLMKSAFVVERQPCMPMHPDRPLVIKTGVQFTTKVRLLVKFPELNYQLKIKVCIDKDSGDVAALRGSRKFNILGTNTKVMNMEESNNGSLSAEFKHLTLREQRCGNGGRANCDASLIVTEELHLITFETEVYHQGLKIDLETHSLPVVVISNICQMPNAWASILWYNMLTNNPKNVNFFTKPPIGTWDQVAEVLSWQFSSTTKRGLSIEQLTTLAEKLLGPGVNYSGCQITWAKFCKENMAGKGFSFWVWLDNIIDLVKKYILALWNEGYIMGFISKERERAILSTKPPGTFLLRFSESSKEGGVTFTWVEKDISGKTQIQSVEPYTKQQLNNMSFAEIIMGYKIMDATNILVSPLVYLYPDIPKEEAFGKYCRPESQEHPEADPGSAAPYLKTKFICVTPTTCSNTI
Structure (SMILES),IC50 [1],IC50 [2]
"CC(=O)N1CC[C@H]2CC[C@@H](C(=O)N3CC(c4cccc(C#N)c4)C3)N2C(=O)[C@@H](NC(=O)c2cc3cc(C(F)(F)P(=O)(O)O)ccc3s2)C1 [Compound 208, ((2-(((5S,8S,10aR)-3-acetyl-8-(3-(3-cyanophenyl)azetidine-1-carbonyl)-6-oxodecahydropyrrolo[1,2-a][1,5]diazocin-5-yl)carbamoyl)benzo[b]thiophen-5-yl)difluoromethyl)phosphonic acid]",0.3 to 3 µM,≤ 0.1 µM
"O=C(N[C@H]1CCN(C(c2ccccc2)c2ccccc2)C[C@H]2CC[C@@H](C(=O)N3CC(c4cccnc4)C3)N2C1=O)c1cc2cc(C(F)(F)P(=O)(O)O)ccc2s1 [Compound 210, ((2-(((5S,8S,10aR)-2-benzhydryl-6-oxo-8-(3-(pyridin-3-yl)azetidine-1-carbonyl)decahydropyrrolo[1,2-a][1,4]diazocin-5-yl)carbamoyl)benzo[b]thiophen-5-yl)difluoromethyl)phosphonic acid]",3 to 30 µM,≤ 0.1 µM
"O=C(N[C@H]1CCNC[C@H]2CC[C@@H](C(=O)N3CC(c4cccnc4)C3)N2C1=O)c1cc2cc(C(F)(F)P(=O)(O)O)ccc2s1 [Compound 212, (difluoro(2-(((5S,8S,10aR)-6-oxo-8-(3-(pyridin-3-yl)azetidine-1-carbonyl)decahydropyrrolo[1,2-a][1,4]diazocin-5-yl)carbamoyl)benzo[b]thiophen-5-yl)methyl)phosphonic acid]",3 to 30 µM,1 to 10 µM
"C[C@H](C(=O)N1CC[C@H]2CC[C@@H](C(=O)N(C)c3ccccc3)N2C(=O)[C@@H](NC(=O)c2cc3cc(C(F)(F)P(=O)(O)O)ccc3[nH]2)C1)c1ccccc1 [Compound 216, (difluoro(2-(((5S,8S,10aR)-8-(methyl(phenyl)carbamoyl)-6-oxo-3-((S)-2-phenylpropanoyl)decahydropyrrolo[1,2 a][1,5]diazocin-5-yl)carbamoyl)-1H-indol-5-yl)methyl)phosphonic acid]",0.3 to 3 µM,1 to 10 µM
"C[C@@H](C(=O)N1CC[C@H]2CC[C@@H](C(=O)N(C)c3ccccc3)N2C(=O)[C@@H](NC(=O)c2cc3cc(C(F)(F)P(=O)(O)O)ccc3[nH]2)C1)c1ccccc1 [Compound 217, (difluoro(2-(((5S,8S,10aR)-8-(methyl(phenyl)carbamoyl)-6-oxo-3-((R)-2-phenylpropanoyl)decahydropyrrolo[1,2 a][1,5]diazocin-5-yl)carbamoyl)-1H-indol-5-yl)methyl)phosphonic acid]",0.3 to 3 µM,> 10 µM
"CN(C(=O)[C@@H]1CC[C@@H]2CCN(C(=O)c3ccccc3)C[C@H](NC(=O)c3cc4cc(C(F)(F)P(=O)(O)O)ccc4[nH]3)C(=O)N21)c1ccccc1 [Compound 220, ((2-(((5S,8S,10aR)-3-benzoyl-8-(methyl(phenyl)carbamoyl)-6-oxodecahydropyrrolo[1,2-a][1,5]diazocin-5-yl)carbamoyl)-1H-indol-5-yl)difluoromethyl)phosphonic acid]",0.3 to 3 µM,> 10 µM
"CC(C)C(=O)N1CC[C@H]2CC[C@@H](C(=O)N(C)c3ccccc3)N2C(=O)[C@@H](NC(=O)c2cc3cc(C(F)(F)P(=O)(O)O)ccc3[nH]2)C1 [Compound 221, (difluoro(2-(((5S,8S,10aR)-3-isobutyryl-8-(methyl(phenyl)carbamoyl)-6-oxodecahydropyrrolo[1,2-a][1,5]diazocin-5-yl)carbamoyl)-1H-indol-5-yl)methyl)phosphonic acid]",0.3 to 3 µM,1 to 10 µM
"CN(C)C(=O)[C@@H]1CC[C@@H]2CCN(c3ccccc3)C[C@H](NC(=O)c3cc4cc(C(F)(F)P(=O)(O)O)ccc4[nH]3)C(=O)N21 [Compound 223, ((2-(((5S,8S,10aR)-8-(dimethylcarbamoyl)-6-oxo-3-phenyldecahydropyrrolo[1,2-a][1,5]diazocin-5-yl)carbamoyl)-1H-indol-5-yl)difluoromethyl)phosphonic acid]",0.3 to 3 µM,1 to 10 µM
"CC(C)CN1CC[C@H]2CC[C@@H](C(=O)N(C)C)N2C(=O)[C@@H](NC(=O)c2cc3cc(C(F)(F)P(=O)(O)O)ccc3[nH]2)C1 [Compound 224, ((2-(((5S,8S,10aR)-8-(dimethylcarbamoyl)-3-isobutyl-6-oxodecahydropyrrolo[1,2-a][1,5]diazocin-5-yl)carbamoyl)-1H-indol-5-yl)difluoromethyl)phosphonic acid]",3 to 30 µM,1 to 10 µM
"CN(C)C(=O)[C@@H]1CC[C@@H]2CCN(Cc3ccccc3)C[C@H](NC(=O)c3cc4cc(C(F)(F)P(=O)(O)O)ccc4[nH]3)C(=O)N21 [Compound 225, ((2-(((5S,8S,10aR)-3-benzyl-8-(dimethylcarbamoyl)-6-oxodecahydropyrrolo[1,2-a][1,5]diazocin-5-yl)carbamoyl)-1H-indol-5-yl)difluoromethyl)phosphonic acid]",3 to 30 µM,1 to 10 µM

# The next lines start with the values.
IC50 [1],IC50 [2],Structure (SMILES)
0.3 to 3 µM,1 to 10 µM,"CC(=O)N1CC[C@H]2CC[C@@H](C(=O)N3CCC[C@H]3Cc3ccccc3)N2C(=O)[C@@H](NC(=O)c2ccc3ccc(C(F)(F)P(=O)(O)O)cc3c2)C1 [Compound 200, ((7-(((5S,8S,10aR)-3-acetyl-8-((S)-2-benzylpyrrolidine-1-carbonyl)-6-oxodecahydropyrrolo[1,2-a][1,5]diazocin-5-yl)carbamoyl)naphthalen-2-yl)difluoromethyl)phosphonic acid]"
0.3 to 3 µM,1 to 10 µM,"CC(=O)N1CC[C@H]2CC[C@@H](C(=O)N(C)c3cccc(C(F)F)c3)N2C(=O)[C@@H](NC(=O)c2cc3cc(C(F)(F)P(=O)(O)O)ccc3s2)C1 [Compound 201, ((2-(((5S,8S,10aR)-3-acetyl-8-((3-(difluoromethyl)phenyl)(methyl)carbamoyl)-6-oxodecahydropyrrolo[1,2-a][1,5]diazocin-5-yl)carbamoyl)benzo[b]thiophen-5-yl)difluoromethyl)phosphonic acid]"
0.3 to 3 µM,1 to 10 µM,"CC(=O)N1CC[C@H]2CC[C@@H](C(=O)N(C)c3ccc(C(F)F)cc3)N2C(=O)[C@@H](NC(=O)c2cc3cc(C(F)(F)P(=O)(O)O)ccc3s2)C1 [Compound 202, ((2-(((5S,8S,10aR)-3-acetyl-8-((4-(difluoromethyl)phenyl)(methyl)carbamoyl)-6-oxodecahydropyrrolo[1,2-a][1,5]diazocin-5-yl)carbamoyl)benzo[b]thiophen-5-yl)difluoromethyl)phosphonic acid]"
3 to 30 µM,≤ 0.1 µM,"O=C(N[C@H]1CCN(C(=O)OCc2ccccc2)C[C@H]2CC[C@@H](C(=O)N3CC(c4cccnc4)C3)N2C1=O)c1cc2cc(C(F)(F)P(=O)(O)O)ccc2s1 [Compound 214, ((2-(((5S,8S,10aR)-2-((benzyloxy)carbonyl)-6-oxo-8-(3-(pyridin-3-yl)azetidine-1-carbonyl)decahydropyrrolo[1,2-a][1,4]diazocin-5-yl)carbamoyl)benzo[b]thiophen-5-yl)difluoromethyl)phosphonic acid]"
≤ 0.3 µM,0.1 to 1 µM,"O=C(N[C@H]1CN(C(=O)CCc2ccccc2)CC[C@H]2CC[C@@H](C(=O)Nc3ccc(-c4ccccc4)cc3)N2C1=O)c1cc2cc(C(F)(F)P(=O)(O)O)ccc2[nH]1 [Compound 215, ((2-(((5S,8S,10aR)-8-([1,1′-biphenyl]-4-ylcarbamoyl)-6-oxo-3-(3-phenylpropanoyl)decahydropyrrolo[1,2a][1,5]diazocin-5-yl)carbamoyl)-1H-indol-5-yl)difluoromethyl)phosphonic acid]"
0.3 to 3 µM,1 to 10 µM,"CN(C(=O)[C@@H]1CC[C@@H]2CCN(CC(F)F)C[C@H](NC(=O)c3cc4cc(C(F)(F)P(=O)(O)O)ccc4[nH]3)C(=O)N21)c1ccccc1 [Compound 218, ((2-(((5S,8S,10aR)-3-(2,2-difluoroethyl)-8-(methyl(phenyl)carbamoyl)-6-oxodecahydropyrrolo[1,2-a][1,5]diazocin-5-yl)carbamoyl)-1H-indol-5-yl)difluoromethyl)phosphonic acid]"
0.3 to 3 µM,1 to 10 µM,"CN(C(=O)[C@@H]1CC[C@@H]2CCN(CC(F)(F)F)C[C@H](NC(=O)c3cc4cc(C(F)(F)P(=O)(O)O)ccc4[nH]3)C(=O)N21)c1ccccc1 [Compound 219, (difluoro(2-(((5S,8S,10aR)-8-(methyl(phenyl)carbamoyl)-6-oxo-3-(2,2,2-trifluoroethyl)decahydropyrrolo[1,2-a][1,5]diazocin-5-yl)carbamoyl)-1H-indol-5-yl)methyl)phosphonic acid]"
